{
  "source": "paper PMC5142825",
  "about": "(Bioorganic & medicinal chemistry letters, 2016)",
  "key": {"[1]": {"target": "T1, Porcn (Mus musculus, UniProt Q9JJJ7)", "T1 sequence (Q9JJJ7 1-461)": "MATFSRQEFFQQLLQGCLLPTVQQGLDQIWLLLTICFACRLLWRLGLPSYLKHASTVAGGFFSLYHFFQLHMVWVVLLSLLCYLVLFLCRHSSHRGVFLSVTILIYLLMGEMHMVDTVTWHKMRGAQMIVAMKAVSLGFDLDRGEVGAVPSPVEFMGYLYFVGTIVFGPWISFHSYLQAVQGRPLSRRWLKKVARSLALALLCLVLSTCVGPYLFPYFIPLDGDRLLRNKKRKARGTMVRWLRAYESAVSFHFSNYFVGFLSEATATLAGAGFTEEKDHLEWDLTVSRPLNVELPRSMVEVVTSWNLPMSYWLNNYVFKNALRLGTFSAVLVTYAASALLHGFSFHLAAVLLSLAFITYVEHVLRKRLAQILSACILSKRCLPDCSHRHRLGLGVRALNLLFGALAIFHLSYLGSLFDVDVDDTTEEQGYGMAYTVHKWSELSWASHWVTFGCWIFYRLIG", "test": "Suppression of Wnt signaling in L-Wnt-STF cells", "format": "cell-based"}, "[2]": {"test": "Metabolic stability in murine liver S9 fractions", "format": "in vitro ADME", "details": "for stability (in words): compared with 6"}, "[3]": {"test": "Stability in murine plasma", "format": "in vitro ADME", "details": "compared with 6"}, "[4]": {"target": "T1, Porcn", "details": "L-Wnt-STF cells; cited from earlier work"}, "[5]": {"details": "murine liver S9 fractions; cited from earlier work"}, "[6]": {"details": "murine plasma; cited from earlier work"}, "[7]": {"details": "human plasma; cited from earlier work"}, "[8]": {"tested_on": "Dvl2/3 phosphorylation in HeLa cells", "test": "Western blot of Dvl2/3 phosphorylation in HeLa cells", "format": "cell-based", "details": "24 h incubation"}, "[9]": {"tested_on": "LRP6 phosphorylation in HeLa cells", "test": "Western blot of LRP6 phosphorylation in HeLa cells", "format": "cell-based", "details": "24 h incubation"}},
  "note": "Like-named read-outs stand apart in the source and are kept apart here.",
  "data": [
    {"smiles": "Cc1ccc2nc(NC(=O)CSc3nc4c(c(=O)n3-c3ccccc3)SCC4)sc2c1", "note": "[IWP-2, reference compound]", "values": [
      {"measurement": "fold decrease of potency relative to 17", "setting": "[1]; L-Wnt-STF cells", "value": 5, "unit": "fold"}
    ]},
    {"smiles": "O=C(CSc1nnc(-c2ccncc2)o1)Nc1ccc(-c2cccnc2)cc1", "note": "[IWP-L1]", "values": [
      {"measurement": "activity against Wnt signaling", "setting": "[1]; at low micromolar concentrations", "value": "inactive"}
    ]},
    {"smiles": "O=C(CSc1nnc(-c2ccncc2)n1-c1ccccc1)Nc1ccc(-c2cccnc2)cc1", "note": "[IWP-L2]", "values": [
      {"measurement": "EC50", "setting": "[1]", "value": 0.3, "unit": "nM"},
      {"measurement": "stability (in words)", "setting": "[2]", "value": "low stability"},
      {"measurement": "stability (in words)", "setting": "[3]", "value": "low stability"}
    ]},
    {"smiles": "O=C(CSc1nc2c(c(=O)n1-c1ccccc1)SCC2)Nc1ccc(-c2ccccc2)cn1", "note": "[IWP-L6]", "values": [
      {"measurement": "fold more potent than 1 (IWP-2)", "setting": "[4]", "value": 60, "unit": "fold"},
      {"measurement": "Half-life", "setting": "[5]", "value": 26, "unit": "min"},
      {"measurement": "Half-life", "setting": "[6]", "value": "<5", "unit": "min"},
      {"measurement": "stability (in words)", "setting": "[7]", "value": "good stability"}
    ]},
    {"smiles": "O=C(Cn1cc(-c2ccncc2)nn1)Nc1ccc(-c2ccccc2)cn1", "note": "[IWP-N3]", "values": [
      {"measurement": "stability (in words)", "setting": "[2]", "value": "much more stable"},
      {"measurement": "stability (in words)", "setting": "[3]", "value": "much more stable"}
    ]},
    {"smiles": "O=C(Cn1nnc(-c2ccncc2)c1-c1ccccc1)Nc1ccc(-c2ccccc2)cn1", "note": "[IWP-O1]", "values": [
      {"measurement": "times more potent than LGK974", "setting": "[1]; L-Wnt-STF cells", "value": 2.5, "unit": "times"},
      {"measurement": "phosphorylation of Dvl2/3", "setting": "[8]", "value": "effectively suppressed"},
      {"measurement": "phosphorylation of LRP6", "setting": "[9]", "value": "suppressed"},
      {"measurement": "degradation after incubation", "setting": "[2]; 4 h", "value": "did not observe any degradation"},
      {"measurement": "stability (in words)", "setting": "[2]", "value": "much more stable"},
      {"measurement": "stability (in words)", "setting": "[3]", "value": "much more stable"}
    ]},
    {"smiles": "Cc1cc(-c2ncc(CC(=O)Nc3ccc(-c4cnccn4)cn3)cc2C)ccn1", "note": "[LGK974, reference compound]", "values": [
      {"measurement": "EC50", "setting": "[1]", "value": 0.2, "unit": "nM"}
    ]}
  ]
}
